From US20260183297A1, “SELECTION OF PATIENTS FOR THE TREATMENT OF FADS1-MEDIATED DISEASES OR DISORDERS USING FADS-1 INHIBITORS” (AMGEN INC., priority 2022, published 2026)
Entries after “also recorded” stand apart in the source; their conditions may differ.

Columns and labels:
[1] = Chronic FADS1 inhibition study in DIO mice (body weight, food intake); type: in vivo, mouse; settings: for lower body weight relative to vehicle-treated mice: 54 days
Procedure: Body weight was measured daily and used for dosing calculations. A 4-hour fasted retro-orbital blood sample was collected at baseline and day 46 and used for insulin, cholesterol, and triglyceride analysis. A 3-day average food consumption was measured on days 39-41. All animals received 0.1 ml of 2 mM ^13C5-DGLA by IP injection 23.5 hours after the last PO gavage with the different treatment to allow for 30 minutes of exposure prior to necropsy to determine the residual in vivo FADS1 activity.

[2] = Liver histology assessment (H&E, Oil-red-O); type: in vivo, mouse; settings: WT DIO mice, 10 mg/kg, 24 days, compared to WT vehicle
FADS1 = molecular target: T1, FADS1 (Mus musculus, UniProt Q920L1); experiment: In vivo FADS1 activity measurement using blood plasma (13C5-DGLA to 13C5-AA conversion); settings: DIO mice, 24 hours after dosing
T1 construct: Liver from ^13C5-DGLA dosed DIO mice was collected for pharmacodynamic (PD) analysis; from tissue; host or cells: living DIO C57Bl/6 mice; 13C5-DGLA to 13C5-AA conversion read in liver (A4) or blood plasma (A5)
T1 sequence (Q920L1 1-447): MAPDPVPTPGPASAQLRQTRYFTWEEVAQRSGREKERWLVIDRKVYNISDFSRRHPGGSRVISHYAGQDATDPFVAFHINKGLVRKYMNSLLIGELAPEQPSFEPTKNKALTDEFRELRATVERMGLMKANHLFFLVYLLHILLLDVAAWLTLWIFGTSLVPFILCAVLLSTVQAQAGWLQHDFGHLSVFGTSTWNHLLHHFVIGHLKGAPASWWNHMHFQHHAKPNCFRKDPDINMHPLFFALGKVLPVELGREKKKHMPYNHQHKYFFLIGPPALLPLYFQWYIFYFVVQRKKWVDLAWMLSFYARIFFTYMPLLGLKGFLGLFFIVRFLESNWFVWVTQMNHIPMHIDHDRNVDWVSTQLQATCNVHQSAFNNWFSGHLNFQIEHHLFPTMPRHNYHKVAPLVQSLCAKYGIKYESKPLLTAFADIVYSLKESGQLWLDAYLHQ
Procedure: FADS1 activity in the presence of Compounds B-E was also measured using blood plasma (in addition to using the liver). The above procedures were perforned to measure the in vivo activity of FADS1 using the liver. The following general procedures were used to measure FADS1 activity using blood plasma. Diet-induced obese (DIO) mice that were on 12 weeks of high fat diet were used to determine the pharmacokinetic (PK) and pharmacodynamic (PD) properties of test compounds. To determine the target coverage at 24 hours after dosing with a test compound (e.g., Compounds B-E, shown below), mice were IP dosed with 0.1 ml solution of ^13C5-DGLA (2 mM in 18.42 mM Na2CO3 buffer). Necropsy were performed at 30 minutes post ^13C5-DGLA dosing. EDTA Plasma was collected for PK and PD analysis.
For PD analysis, 50 μl of plasma or standards (pooled untreated mouse plasma with ^13C5-DGLA and ^13C5-AA added at concentration of 4.57 nM to 10 uM) were mixed with 10 μl of 90% methanol and 10 μl of 50 μg/mL of ALA-D14 as an internal standard (100 μM alpha-linolenic acid-d14 (ALA-d14, Cayman Chemical)) in a 96 well plate. 490 μl of chloroform:methanol (2:1) were added to each well. Plates were plated on a shaker for 5 min prior to adding 66.5 μl water. The plates were shaken for another 5 minutes, followed by centrifugation at 2000 RPM for 5 minutes. The bottom organic layer was transferred to a clean 96 well plate. 333 ul of chloroform:methanol (2:1) were added to the to the remaining liquid phase in the original plate. After 5 min of shaking, the plate was centrifuged at 2000 RPM for 5 minutes. The bottom layer was collected and combined with the first bottom layer. The combined layers were evaporated to dryness under a constant stream of nitrogen gas. After the plate has been dried, 100 μl of 2N NaOH was added to the mixture for subsequent saponification at 65° C. for 1 hour. The samples were then cooled to room temperature and the mixture was then acidified with 50 μl of formic acid followed by two consecutive chloroform:methanol (2:1) extractions. 500 μl of Chloroform:methanol (2:1) was added and the mixture thoroughly mixed by shaking. The plate was then centrifuged at 2,000 rpm for 5 min. The bottom chloroform phase was transferred to a new 2 mL 96 well plate and the remaining aqueous layer was extracted with another 250 μl of chloroform:methanol (2:1). The organic extracts were combined, and the solvent was evaporated to dryness by placing the plate under nitrogen. Extracts were then dissolved in 200 μl of acetonitrile/methanol (1:1). The plate was placed on a shaker for 30 minutes to ensure thorough mixing and dissolution of the extracted fatty acids. The plate was then centrifuged at 2000 RPM for 5 minutes. 80 μl of the samples were transferred to a new 96 well polypropylene plate for analysis on a LC-MS/MS for the following analytes: ^13C5-DGLA, ^13C5-AA, with ALA-d14 as the internal standard. Briefly describing the LC-MS/MS method: 20 μl of sample was injected onto a Poroshell 120 EC-C18 3.0×50 mm, 1.9 μm id column. Mobile phases were 80% acetonitrile containing 5 mM ammonium acetate for mobile phase A and 99.5% acetonitrile containing 5 mM ammonium acetate for mobile phase B. The LC gradient was a 3 min long method at a flow rate of 0.4 mL/minute consisting of 45% B at 0 to 0.5 min, followed by a 45% B to 100% B from 0.5 to 2.0 min; the system was then maintained at 100% B from 2.0 min to 2.5 min and returned to 45% B at 2.6 min and maintained until end of the method. The analyte peak areas were quantified by using the SCIEX Analyst software. To determine the degree of FADS1 inhibition, the in vivo FADS1 activity, POC, percent of inhibition, and in vivo IC50 values are calculated as described above for liver FADS1 activity measurement.

[3] = mouse, single oral dose 10 mg/kg
[4] = mouse, single oral dose 30 mg/kg

| liver lipid content (Oil-red-O staining) [2] | Plasma Avg % Conversion (FADS1; single oral dose 10 mg/kg) [%] | Plasma Avg % Conversion (FADS1; single oral dose 30 mg/kg) [%] | Plasma Avg % Conversion (FADS1; single oral dose 50 mg/kg) [%] | inhibition at 10 mg/kg (FADS1; [3]) [%] | inhibition at 30 mg/kg (FADS1; [4]) [%] | inhibition at 50 mg/kg (FADS1; mouse, single oral dose 50 mg/kg) [%] | Plasma Avg % Conversion (FADS1; single oral dose 3 mg/kg) [%] | inhibition at 3 mg/kg (FADS1; mouse, single oral dose 3 mg/kg) [%] | SMILES | lower body weight relative to vehicle-treated mice ([1]; 10 mg/kg daily oral) [%] | lower body weight relative to vehicle-treated mice ([1]; 30 mg/kg daily oral) [%] | food intake ([1]; 10 and 30 mg/kg daily oral) |
| --- | --- | --- | --- | --- | --- | --- | --- | --- | --- | --- | --- | --- |
| reduced lipid content |  |  |  |  |  |  |  |  | COc1ccn2c(=O)c(-c3cnn(CC(F)(F)C(F)(F)F)c3)c(C(F)(F)F)nc2c1 [Compound A, 8-methoxy-3-(1-(2,2,3,3,3-pentafluoropropyl)-1H-pyrazol-4-yl)-2-(trifluoromethyl)-4H-pyrido[1,2-a]pyrimidin-4-one] | 17.9 | 21.1 | without affecting food intake; also recorded: No significant differences |
|  | 2.9 | 2.2 | 1.9 | 95.2 | 96.3 | 96.9 |  |  | COc1ccn2c(=O)c(-c3cnn(CC(F)(F)C(F)(F)F)c3)c(C(F)(F)F)nc2n1 [Compound B] |  |  |  |
|  | 4.3 | 1.7 |  | 92.8 | 97.1 |  | 10.1 | 83.3 | N#Cc1ccn2c(=O)c(-c3cnn(CC(F)(F)C(F)(F)F)c3)c(C(F)(F)F)nc2c1 [Compound C] |  |  |  |
